This note sets out measurements from ChEMBL document CHEMBL3044815, “Inhibitory effects on nuclear factor B of the Vietnamese freshwater cyanobacteria” (Med Chem Res, 2011).

The nature of test [1]: Inhibition of TNFalpha-induced NF-kappaB activity (unknown origin) expressed in HeLa cells cotreated with compound and 10 ng/ml TNF-alpha for 24 hr by reporter gene assay. Format: cell-based, Homo sapiens. On the technique in general: A reporter such as luciferase makes a cellular process visible.
The next test has as its system HeLa. As to the kind of experiment: Cytotoxicity against Homo sapiens (human) HeLa cells after 48 hr by MTT assay. It counts as functional, cell-based. (Formazan colour is commonly taken as a measure of viable cells.)
Where [2] appears, read: Homo sapiens, HeLa, 24 h, read-out: IC50.

With `CC[C@H](CC[C@@H](C)[C@H]1CC[C@H]2[C@@H]3CC=C4C[C@@H](O)CC[C@]4(C)[C@H]3CC[C@]12C)C(C)C` [BETA-SITOSTEROL], the 50% inhibitory concentration (IC50) result in test [1] (hela) is listed as “Not Active”. The Activity entry in the test with HeLa is “Dose-dependent effect”.

Consider `CC1=C(O)C(=O)C=C2C1=CC=C1[C@@]2(C)CC[C@@]2(C)[C@@H]3C[C@](C)(C(=O)O)CC[C@]3(C)CC[C@]12C` [CELASTROL], for which the IC50 in test [1] (setting [2]) turned out to be 0.72 µg/mL. For the same compound, the Activity result in the test with HeLa was “Dose-dependent effect”.

For `CC(C)[C@@H](C)/C=C/[C@@H](C)[C@H]1CC[C@H]2C3=CC=C4C[C@@H](O)CC[C@]4(C)[C@H]3CC[C@]12C` [ERGOSTEROL], the IC50 in test [1] (setting [2]) is 0.91 µg/mL. In addition, in the test with HeLa, the Activity result was “Dose-dependent effect”.

`CC[C@H](/C=C/[C@@H](C)[C@H]1CC[C@H]2[C@@H]3CC=C4C[C@@H](O)CC[C@]4(C)[C@H]3CC[C@]12C)C(C)C` [STIGMASTEROL]: the IC50 entry in test [1] (hela) was “Not Active”. Also, in the test on HeLa, the Activity entry is “Dose-dependent effect”.

As usually defined, the IC50 is the concentration that gives 50% inhibition.
